According to patent US20070248646A1, “Use of azurocidin inhibitors in prevention and treatment of ocular vascular leakage” (priority 2006, published 2007):

Tests used:
[1] = test system: isolated leukocytes; conditions: VEGF 5-500 ng/ml, 20 minutes
[2] = test system: VEGF-induced retinal leukostasis; assay: Concanavalin A ex vivo retinal leukostasis quantification, VEGF-induced; assay type: in vivo, Brown Norway rats
Method: (§1) This study employed Brown Norway rats, AZ (1 μg, 10 μg, 20 μg), PBS, aprotinin, VEGF164, and polyclonal anti-AZ antibody (1 μg). Briefly, Brown Norway rats received intravitreal injections of AZ (1 μg, 10 μg and 20 μg) in one eye and PBS in the contralateral eye. BRB breakdown was quantified using the Evans Blue (EB) technique at 1 hour, 3 hours, and 24 hours after intravitreal injection of AZ or PBS. To assess whether AZ induced retinal leukostasis, firm leukocyte adhesion was quantified at 3 hours and 24 hours post AZ injection (10 μg) using the ex vivo conconavalin leukostasis assay. To block AZ, rats were treated with a single intravenous injection of aprotinin (30,000KIU), prior to the intravitreal injections. To investigate whether AZ was involved in VEGF-induced BRB breakdown, rats received intravitreal injections of 50 ng recombinant mouse VEGF164 in one eye and PBS in the other eye and were treated intravenously with aprotinin (50,000KIU every eight hours) or polyclonal anti-AZ antibody (1 μg). BRB breakdown and retinal leukostasis were quantified 24 hours after VEGF injection.
Deep anesthesia was induced with xylazine and ketamine as above. The chest cavity was carefully opened and the left ventricle was entered with a 14-gauge perfusion cannula fixed to a vessel clamp; care was taken to avoid ventricular obstruction. The right atrium was opened with a 12-gauge needle to achieve outflow. With the heart providing the motive force, 250 ml/kg PBS (roughly 30 ml of PBS quickly) was perfused to clear erythrocytes and non-sticking leukocytes, followed by perfusion with FITC-coupled Concanavalin A lectin (20 μg/ml in PBS, pH 7.4, total concentration 5 mg/kg) (Vector Labs, Burlingame, Calif.). The latter stained adherent leukocytes and the vascular endothelium. Lectin staining was followed by PBS perfusion (30 ml quickly).
The retinas were flat-mounted in a water-based fluorescence-anti-fading medium (Southern Biotechnology, Birmingham, Ala.) and imaged via fluorescence microscopy (Leica upright microscope, Hamamatsu digital high sensitivity camera, openlab imaging software). The total number of adherent leukocytes per retina was counted in a masked fashion.

[3] = test system: VEGF-induced blood retinal barrier breakdown; assay: VEGF-induced blood retinal barrier breakdown (Evans Blue); assay type: in vivo, Brown Norway rats; conditions: 24 hours after intravitreal 50 ng VEGF
Method: as §1
Rats received intravitreous injections of 5 μl of sterile phosphate-buffered saline (PBS) containing 50 ng VEGF164 (R&D Systems, Minneapolis, Minn.) in one eye and 5 μl of sterile phosphate-buffered saline (PBS) in the contralateral eye. The retinas were analyzed for leakage 24 hours after VEGF injection.
In a second group, the rats were additionally treated intravenously with aprotinin (Trasylol®, Bayer Pharmaceuticals). 50,000KIU of aprotinin (5 ml of Trasylol®) was administered intravenously through the tail vein 1 hour before, as well as 8 hours and 16 hours after, the intravitreal injection of VEGF. The retinas were analyzed 24 hours after VEGF administration.
In a third group, rats were treated with intravitreous injections of 1 μg of goat anti-human azurocidin polyclonal antibody (5 μl of a 200 μg/ml antibody solution, Santa Cruz biotechnology) or control goat isotype IgG (R&D system) in the VEGF injected eye 6 hours after VEGF administration.
Retinal vascular permeability was quantified as previously described (Qaum et al. (2002) supra, Xu et al. (2001) INVEST. OPHTHALMOL. VIS. SCI. 42; 789-94). After the animals were deeply anesthetized, Evans blue dye (Sigma) dissolved in normal saline (30 mg/ml) was injected through the tail vein over 10 seconds at a dosage of 45 mg/kg. Blood samples were obtained from the left ventricle, just before perfusion at 2 hours, to obtain the time-average Evans blue dye plasma concentration. These blood samples were centrifuged at 12,000 rpm for 15 minutes and diluted to 1/10,000th of their initial concentration in formamide (Sigma). The background-subtracted absorbance was determined by measuring each sample at 620 nm (the absorbance maximum for Evans blue dye in formamide) and 740 nm (the absorbance minimum) with a spectrophotometer. The concentration of dye in the plasma was calculated from a standard curve of Evans blue dye in formamide. After the dye had circulated for 2 hours, the chest cavity was opened, and the rats were perfused through the left ventricle with 1% paraformaldehyde in citrate buffer (0.05 M, pH 3.5) at a physiological pressure of 120 mm Hg. The retinas were then carefully dissected under an operating microscope. After measurement of the retinal weight, Evans blue dye was extracted by incubating each retina in 0.180 ml of formamide for 18 hours at 70° C. The extract was ultracentrifuged at a speed of 14,000 rpm for 60 minutes at 25° C. Sixty microliters of the supernatant was used for spectrophotometric measurement at 620 nm and 740 nm. The background-subtracted absorbance was determined by measuring each sample at 620 nm (the absorbance maximum for Evans blue dye in formamide) and 740 nm (the absorbance minimum). The concentration of dye in the extracts was calculated from a standard curve of Evans blue dye in formamide. […]

[4] = test system: retinal vascular permeability; assay: Qualitative evaluation of retinal vascular permeability with 20-kDa FITC conjugated dextran; assay type: in vivo, Brown Norway rats; conditions: flat-mount retinas, VEGF-injected eyes with or without aprotinin
Method: Retinal vascular permeability was documented in a histological manner by intravenous injection of 20-kDa FITC conjugated dextran (50 mg/Kg, Sigma Aldrich). Rats were sacrificed 30 minutes later with intracardiac perfusion of 4% paraformaldehyde to fix the dextran conjugate in the tissues. The retinas were carefully dissected and flat mounted in anti-fading medium (Vector Laboratories). Flat-mount retinas were examined by fluorescent microscopy. Digital color enhancement (green) was equally applied to all images for improved visualization of fluorescence.

[5] = test system: murine brain microvascular endothelial cells (bEND3); assay: Transendothelial electrical resistance (TEER), in vitro model of the BBB; assay type: cell-based; conditions: AZ 25 μg/ml, VEGF 100 ng/ml
Method: The purpose of this experiment was to investigate the direct effects of VEGF and/or AZ on the BBB. This study used an in vitro model of the BBB in which transendothelial electrical resistance (TEER) in barrier-privileged murine brain microvascular endothelial cells (bEND3) was measured. The results provide support that the direct effects of VEGF and AZ on the endothelium of the BBB, although related, may be distinct.
Murine brain microvascular endothelial cells (bEND3) were grown on 0.4 μm fibronectin-coated inserts in 24-well plates (BD Bioscience, San Jose, Calif.). After the cells reached confluency, the cells were stimulated with AZ (AZ, 25 μg/ml), VEGF (100 ng/ml) or both. Electrical resistance was measured at the indicated time-points after the treatment by using a volt-ohmmeter (EVOM, World Precision Instruments, Sarasota, Fla.) with the electrode reproducibly positioned in each well. Transendothelial electrical resistance (TEER) values for each Transwell were calculated by subtracting the electrical resistance of the blank wells (coated filters without cells) prepared and treated as the experimental samples. All experiments were carried out in quadruplicate. The results were expressed as Mean±SEM from n=4 independent experiments.

[6] = test system: retinal vascular permeability (blood retina barrier); assay: Evans Blue BRB breakdown after intravitreal azurocidin; assay type: in vivo, Brown Norway rats; conditions: intravitreal 20 μg
Method: as §1
Rats received intravitreous injections of 5 μl of sterile phosphate-buffered saline (PBS) containing 20 μg human neutrophil azurocidin (Athens Research and Biotechology, Atlanta, Ga.) in one eye and 5 μl of sterile phosphate-buffered saline (PBS) in the contralateral eye. The retinas were analyzed 45 minutes, 3 hours, and 24 hours after azurocidin injection.
Retinal vascular permeability was quantified as previously described (Qaum et al. (2002) supra, Xu et al. (2001) INVEST. OPHTHALMOL. VIS. SCI. 42; 789-94). After the animals were deeply anesthetized, Evans blue dye (Sigma) dissolved in normal saline (30 mg/ml) was injected through the tail vein over 10 seconds at a dosage of 45 mg/kg. Blood samples were obtained from the left ventricle, just before perfusion at 2 hours, to obtain the time-average Evans blue dye plasma concentration. These blood samples were centrifuged at 12,000 rpm for 15 minutes and diluted to 1/10,000th of their initial concentration in formamide (Sigma). The background-subtracted absorbance was determined by measuring each sample at 620 nm (the absorbance maximum for Evans blue dye in formamide) and 740 nm (the absorbance minimum) with a spectrophotometer. The concentration of dye in the plasma was calculated from a standard curve of Evans blue dye in formamide. After the dye had circulated for 2 hours, the chest cavity was opened, and the rats were perfused through the left ventricle with 1% paraformaldehyde in citrate buffer (0.05 M, pH 3.5) at a physiological pressure of 120 mm Hg. The retinas were then carefully dissected under an operating microscope. After measurement of the retinal weight, Evans blue dye was extracted by incubating each retina in 0.180 ml of formamide for 18 hours at 70° C. The extract was ultracentrifuged at a speed of 14,000 rpm for 60 minutes at 25° C. Sixty microliters of the supernatant was used for spectrophotometric measurement at 620 nm and 740 nm. The background-subtracted absorbance was determined by measuring each sample at 620 nm (the absorbance maximum for Evans blue dye in formamide) and 740 nm (the absorbance minimum). The concentration of dye in the extracts was calculated from a standard curve of Evans blue dye in formamide. Blood-retinal barrier breakdown was calculated as previously described (Qaum et al (2002) supra, Xu et al. (2001) supra). Briefly, as mentioned, the optical density of the formamide containing tissue-extracted Evans Blue dye and that of the animals' plasma were measured at two different wavelengths (620 and 740 nm). The values were then inserted into the following equation. [formula] Results were expressed as a percentage of the value in control eyes. As used through each of Examples 1 -12, the units for results from the EB technique are μl plasma/g retina/h. Ex Vivo Quantification of Retinal Leukostasis

## VEGF
[1]
  anticipated release of AZ from leukocytes: induces the release of AZ from leukocytes
[2]; 24 hours after 50 ng VEGF, aprotinin 50,000 KIU i.v. 1 hour before, 8 and 16 hours after
  leukocyte adhesion as a percentage of leukocyte adhesion in the contralateral PBS-injected eye: 308%
[2]; intravitreal 50 ng VEGF, 24 hours post injection
  fold increase in total number of leukocytes adherent to the retina vessels compared to PBS-injected eyes: 3 fold
[3]
  BRB breakdown as percentage of the value in control eyes: 320%±74
[3]; PBS eye 9.6±1.4 (VEGF alone), 5.4±1.4 (with aprotinin)
  Evans Blue retinal leakage in VEGF-injected eye: 29.7±7.5 μl plasma/g retina/h
[3]; aprotinin i.v. 50,000KIU every eight hours, antibody 1 μg intravitreal 6 hours after VEGF
  fold increase in retinal vascular leakage compared to the PBS injected eye: 3.2±0.74 fold
[4]
  retinal distribution of intravenously injected 20 kDa FITC-conjugated dextran: fluorescence diffusely distributed throughout the retinal tissues at both intraluminal and extravascular locations
[5]
  TEER after 6 hours until 24 hours after treatment: showed no sign of recovery in the TEER values
  TEER up to 6 hours after treatment: remained at the reduced levels until 6 hours after treatment
  TEER, first 30 minutes after incubation: rapid and significant drop of resistance

B1: azurocidin (protein, UniProt P20160 27-248, looked up)
Azurocidin: IVGGRKARPRQFPFLASIQNQGRHFCGGALIHARFVMTAASCFQSQNPGVSTVVLGAYDLRRRERQSRQTFSISSMSENGYDPQQNLNDLMLLQLDREANLTSSVTILPLPLQNATVEAGTRCQVAGWGSQRSGGRLSRFPRFVNVTVTPEDQCRPNNVCTGVLTRRGGICNGDGGTPLVCEGLAHGVASFSLGPCGRGPDFFTRVALFRDWIDGVLNNPGP
notes: human neutrophil azurocidin
[5]
  TEER after 6 hours until 24 hours after treatment: started to recover to normal levels and reached higher values than untreated control
  TEER up to 6 hours after treatment: remained at the reduced levels until 6 hours after treatment
  TEER, first 30 minutes after incubation: rapid and significant drop of resistance
[6]
  time course of increase in retinal vascular permeability: with a peak one to three hours post administration
[6]; 3 to 5 hours post injection, PBS eye 8.3±1.4
  Evans Blue retinal leakage: 21±2.3 μl plasma/g retina/h
[6]; 3 to 5 hours post injection, n=11
  fold increase in Evans Blue retinal leakage compared to control eyes: 2.7 fold
[6]; 24 hours post-injection, PBS eye 8.7±1.8
  Evans Blue retinal leakage: 16.5±2.8 μl plasma/g retina/h
[6]; 24 hours post-injection, n=6
  fold increase in Evans Blue retinal leakage compared to control eyes: 1.7 fold
[6]; approximately one to three hours after injection, n=8
  fold increase in Evans Blue retinal leakage compared to control eyes: 7.7 fold
[6]; one to three hours after injection, PBS eye 5.8±1.4
  Evans Blue retinal leakage: 45±17 μl plasma/g retina/h
